Patent publication US11357857B2, “Excipient compounds for protein processing” (COMERA LIFE SCIENCES, INC., priority 2014, dated 2022)
“And” between values parts separate entries of the source, which are not always exact repeats. Identical values can stand only once. Counter-ions that a name gives are not always drawn. Like-named read-outs stand apart in the source and are kept apart here.

Columns and labels:
[1] = tested on: bovine gamma globulin (BGG); assay: Viscosity of 280 mg/mL BGG formulations in 50 mM histidine HCl pH 6 with excipient, cone and plate viscometer (Examples 1, 2, 4-6); type: physicochemical
[2] = Viscosity of PEG (Mw ~1,000,000) solution in Tris buffer with excipient (Examples 12-13); type: physicochemical

COc1cc(C(=O)[O-])ccc1O.[Na+] [Vanillic acid, sodium salt]
Viscosity ([1]; excipient 25 mg/mL): 56 cP | Viscosity Reduction ([1]; excipient 25 mg/mL): 29% | Viscosity ([1]; excipient 50 mg/mL): 50 cP | Viscosity Reduction ([1]; excipient 50 mg/mL): 37%

O=C([O-])c1ccccc1O.[Na+] [Sodium salicylate]
Viscosity [1]: 57 cP and 52 cP

CN1CCCC1=O [N-Methyl-2-pyrrolidone]
Viscosity ([1]; excipient 30 mg/mL): 45 cP | Viscosity Reduction ([1]; excipient 30 mg/mL): 43% | Viscosity ([1]; excipient 52 mg/mL): 52 cP | Viscosity Reduction ([1]; excipient 52 mg/mL): 34%

CC(O)(P(=O)(O)O)P(=O)(O)O [etidronic acid/K salt, etidronic acid]
Viscosity ([2]; excipient 12 mg/mL): 80.5 cP | Viscosity Reduction ([2]; excipient 12 mg/mL): 23% | Viscosity ([2]; excipient 24 mg/mL): 71.91 cP | Viscosity Reduction ([2]; excipient 24 mg/mL): 31%

Arg-Arg [Dipeptide RR (Arg-Arg)]
Viscosity ([1]; excipient 50 mg/mL): 57 cP | Viscosity Reduction ([1]; excipient 50 mg/mL): 28% | Viscosity ([1]; excipient 100 mg/mL): 62 cP | Viscosity Reduction ([1]; excipient 100 mg/mL): 22%

Tyr-Glu [Dipeptide YE (Tyr-Glu)]
Viscosity ([1]; excipient 50 mg/mL): 55 cP | Viscosity Reduction ([1]; excipient 50 mg/mL): 30% | Viscosity ([1]; excipient 100 mg/mL): 68 cP | Viscosity Reduction ([1]; excipient 100 mg/mL): 14%

N=C(N)NCCS(=O)(=O)O [Product of Example 8, Guanyl taurine]
Viscosity ([1]; excipient 26 mg/mL): 58 cP | Viscosity Reduction ([1]; excipient 26 mg/mL): 27% | Viscosity ([1]; excipient 58 mg/mL): 50 cP | Viscosity Reduction ([1]; excipient 58 mg/mL): 37% | Viscosity ([1]; excipient 76 mg/mL): 49 cP | Viscosity Reduction ([1]; excipient 76 mg/mL): 38% | Viscosity ([1]; excipient 103 mg/mL): 46 cP | Viscosity Reduction ([1]; excipient 103 mg/mL): 42% | Viscosity ([1]; excipient 129 mg/mL): 47 cP | Viscosity Reduction ([1]; excipient 129 mg/mL): 41% | Viscosity ([1]; excipient 159 mg/mL): 42 cP | Viscosity Reduction ([1]; excipient 159 mg/mL): 47% | Viscosity ([1]; excipient 163 mg/mL): 42 cP | Viscosity Reduction ([1]; excipient 163 mg/mL): 47%

Nc1ccc(S(=O)(=O)[O-])cc1.[Na+] [Sodium sulfanilate]
Viscosity ([1]; excipient 44 mg/mL): 49 cP | Viscosity Reduction ([1]; excipient 44 mg/mL): 38% | Viscosity ([1]; excipient 96 mg/mL): 42 cP | Viscosity Reduction ([1]; excipient 96 mg/mL): 47%

dimethylcyclohexylammonium hydroxybenzoate [DMCHA-hydroxybenzoate]
Viscosity ([1]; excipient 67 mg/mL): 46 cP | Viscosity Reduction ([1]; excipient 67 mg/mL): 42% | Viscosity ([1]; excipient 92 mg/mL): 42 cP | Viscosity Reduction ([1]; excipient 92 mg/mL): 47%

Arg-Lys [Dipeptide RK (Arg-Lys)]
Viscosity ([1]; excipient 50 mg/mL): 53 cP | Viscosity Reduction ([1]; excipient 50 mg/mL): 33% | Viscosity ([1]; excipient 100 mg/mL): 64 cP | Viscosity Reduction ([1]; excipient 100 mg/mL): 19%

Nc1ncnc2c1ncn2[C@@H]1O[C@H](COP(=O)(O)O)[C@@H](O)[C@H]1O [Adenosine monophosphate]
Viscosity ([1]; excipient 26 mg/mL): 47 cP | Viscosity Reduction ([1]; excipient 26 mg/mL): 41% | Viscosity ([1]; excipient 50 mg/mL): 66 cP | Viscosity Reduction ([1]; excipient 50 mg/mL): 16%

Arg-His [Dipeptide RH (Arg-His)]
Viscosity ([1]; excipient 50 mg/mL): 52 cP | Viscosity Reduction ([1]; excipient 50 mg/mL): 34% | Viscosity ([1]; excipient 100 mg/mL): 72 cP | Viscosity Reduction ([1]; excipient 100 mg/mL): 9%

Leu-Glu [Dipeptide LE (Leu-Glu)]
Viscosity ([1]; excipient 50 mg/mL): 72 cP | Viscosity Reduction ([1]; excipient 50 mg/mL): 9% | Viscosity ([1]; excipient 100 mg/mL): 87 cP | Viscosity Reduction ([1]; excipient 100 mg/mL): −10%

CN(C)CCCN [DMAPA-HCl, dimethylaminopropylamine]
Viscosity ([1]; excipient 40 mg/mL): 54 cP | Viscosity Reduction ([1]; excipient 40 mg/mL): 32% | Viscosity ([1]; excipient 87 mg/mL): 57 cP | Viscosity Reduction ([1]; excipient 87 mg/mL): 28%

Trp2Lys3
Viscosity ([1]; excipient 50 mg/mL): 60 cP | Viscosity Reduction ([1]; excipient 50 mg/mL): 24% | Viscosity ([1]; excipient 100 mg/mL): 59 cP | Viscosity Reduction ([1]; excipient 100 mg/mL): 25%

Arg-Glu [Dipeptide RE (Arg-Glu)]
Viscosity ([1]; excipient 50 mg/mL): 50 cP | Viscosity Reduction ([1]; excipient 50 mg/mL): 37% | Viscosity ([1]; excipient 100 mg/mL): 66 cP | Viscosity Reduction ([1]; excipient 100 mg/mL): 16%

NC(C1CCCCC1)C1CCCCC1 [DCHMA-HCl, dicyclohexylmethylamine]
Viscosity ([1]; excipient 29 mg/mL): 51 cP | Viscosity Reduction ([1]; excipient 29 mg/mL): 35% | Viscosity ([1]; excipient 50 mg/mL): 51 cP | Viscosity Reduction ([1]; excipient 50 mg/mL): 35%

O=C([O-])c1ccccc1.[Na+] [Sodium benzoate]
Viscosity ([1]; excipient 31 mg/mL): 61 cP | Viscosity Reduction ([1]; excipient 31 mg/mL): 23% | Viscosity ([1]; excipient 56 mg/mL): 62 cP | Viscosity Reduction ([1]; excipient 56 mg/mL): 22%

Arg-Pro [Dipeptide RP (Arg-Pro)]
Viscosity ([1]; excipient 50 mg/mL): 51 cP | Viscosity Reduction ([1]; excipient 50 mg/mL): 35% | Viscosity ([1]; excipient 100 mg/mL): 53 cP | Viscosity Reduction ([1]; excipient 100 mg/mL): 33%
